According to ChEMBL document CHEMBL3352319, “Identification and pharmacological characterization of 3,6-diazabicyclo[3.1.1]heptane-3-carboxamides as novel ligands for the α4β2 and α6/α3β2β3 nicotinic acetylcholine receptors (nAChRs)” (Eur J Med Chem, 2014):

How the values were obtained:
[1] = target: T1, Neuronal acetylcholine receptor; alpha4/beta2 (Homo sapiens, UniProt P17787+P43681); assay: Displacement of [3H] nicotine from human alpha4beta2 nAChR transfected in SH-EP1 cells by liquid scintillation counting; assay type: cell-based
[2] = target: T2, Neuronal acetylcholine receptor; alpha3/alpha6/beta2/beta3 (Homo sapiens, UniProt P17787+P32297+Q05901+Q15825); assay: Displacement of [3H]epibatidine from human alpha6/alpha3beta2beta3 nAChR transfected in CHO cells by liquid scintillation counting; assay type: cell-based
[3] = target: T1, Neuronal acetylcholine receptor; alpha4/beta2; assay: Agonist activity at human alpha4beta2 nAChR transfected in SH-EP1 cells assessed as calcium flux by FLIPR assay; assay type: cell-based
[4] = target: T1, Neuronal acetylcholine receptor; alpha4/beta2; assay: Agonist activity at human alpha4beta2 nAChR low sensitivity isoform transfected in SH-EP1 cells assessed as calcium flux by FLIPR assay; assay type: cell-based
[5] = target: T1, Neuronal acetylcholine receptor; alpha4/beta2; assay: Agonist activity at human alpha4beta2 nAChR low sensitivity isoform transfected in SH-EP1 cells assessed as calcium flux by FLIPR assay relative to control; assay type: cell-based
[6] = target: T1, Neuronal acetylcholine receptor; alpha4/beta2; assay: Agonist activity at human alpha4beta2 nAChR high sensitivity isoform transfected in SH-EP1 cells assessed as calcium flux by FLIPR assay relative to control; assay type: cell-based
[7] = target: T2, Neuronal acetylcholine receptor; alpha3/alpha6/beta2/beta3; assay: Agonist activity at human alpha6/alpha3beta2beta3 nAChR transfected in CHO cells assessed as calcium flux by FLIPR assay; assay type: cell-based
[8] = target: Neuronal acetylcholine receptor; alpha3/alpha6/beta2/beta3 (Homo sapiens) (UniProt P17787+P32297+Q15825+Q05901); assay: Agonist activity at human alpha6/alpha3beta2beta3 nAChR transfected in CHO cells assessed as calcium flux by FLIPR assay relative to control; assay type: cell-based
[9] = Cmax in po dosed rat; assay type: ADME, organism-based; design: route oral; details: in vivo
[10] = Tmax in po dosed rat; assay type: ADME, organism-based; details: in vivo
[11] = Oral bioavailability in rat; assay type: ADME, organism-based; details: in vivo
[12] = Half life in po dosed rat; assay type: ADME, organism-based; details: in vivo
[13] = Drug uptake in po dosed rat plasma after 0.5 hrs by LC-MS/MS analysis; assay type: ADME, organism-based
[14] = Drug uptake in po dosed rat brain after 0.5 hrs by LC-MS/MS analysis; assay type: ADME, organism-based; details: read-out: Drug uptake
[15] = Ratio of drug level in po dosed rat brain to plasma after 0.5 hrs by LC-MS/MS analysis; assay type: ADME, organism-based; details: read-out: BPR
[16] = Drug uptake in po dosed rat plasma after 1 hrs by LC-MS/MS analysis; assay type: ADME, organism-based
[17] = Drug uptake in po dosed rat brain after 1 hrs by LC-MS/MS analysis; assay type: ADME, organism-based; details: read-out: Drug uptake
[18] = Ratio of drug level in po dosed rat brain to plasma after 1 hrs by LC-MS/MS analysis; assay type: ADME, organism-based; details: read-out: BPR
[19] = Drug uptake in po dosed rat plasma after 4 hrs by LC-MS/MS analysis; assay type: ADME, organism-based
[20] = Drug uptake in po dosed rat brain after 4 hrs by LC-MS/MS analysis; assay type: ADME, organism-based; details: read-out: Drug uptake
[21] = Ratio of drug level in po dosed rat brain to plasma after 4 hrs by LC-MS/MS analysis; assay type: ADME, organism-based; details: read-out: BPR
Rattus norvegicus = species on record: Rattus norvegicus; assay: Inhibition of L-dopa-induced abnormal involuntary movement in rat; assay type: functional

T2 sequence (P17787 whole entry): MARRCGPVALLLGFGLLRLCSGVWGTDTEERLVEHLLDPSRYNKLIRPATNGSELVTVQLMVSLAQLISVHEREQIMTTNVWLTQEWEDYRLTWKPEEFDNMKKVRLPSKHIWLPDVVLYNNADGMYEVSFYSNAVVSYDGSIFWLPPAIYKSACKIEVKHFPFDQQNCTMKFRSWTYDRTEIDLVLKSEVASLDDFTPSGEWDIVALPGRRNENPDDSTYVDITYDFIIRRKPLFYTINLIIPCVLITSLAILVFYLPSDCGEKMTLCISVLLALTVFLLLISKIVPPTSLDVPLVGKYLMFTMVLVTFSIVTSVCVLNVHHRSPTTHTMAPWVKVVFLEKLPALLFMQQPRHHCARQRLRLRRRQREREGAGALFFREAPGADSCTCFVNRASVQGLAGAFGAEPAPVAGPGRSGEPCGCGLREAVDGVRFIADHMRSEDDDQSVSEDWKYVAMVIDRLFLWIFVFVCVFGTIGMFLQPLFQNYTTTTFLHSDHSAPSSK
T2 sequence (P32297 whole entry): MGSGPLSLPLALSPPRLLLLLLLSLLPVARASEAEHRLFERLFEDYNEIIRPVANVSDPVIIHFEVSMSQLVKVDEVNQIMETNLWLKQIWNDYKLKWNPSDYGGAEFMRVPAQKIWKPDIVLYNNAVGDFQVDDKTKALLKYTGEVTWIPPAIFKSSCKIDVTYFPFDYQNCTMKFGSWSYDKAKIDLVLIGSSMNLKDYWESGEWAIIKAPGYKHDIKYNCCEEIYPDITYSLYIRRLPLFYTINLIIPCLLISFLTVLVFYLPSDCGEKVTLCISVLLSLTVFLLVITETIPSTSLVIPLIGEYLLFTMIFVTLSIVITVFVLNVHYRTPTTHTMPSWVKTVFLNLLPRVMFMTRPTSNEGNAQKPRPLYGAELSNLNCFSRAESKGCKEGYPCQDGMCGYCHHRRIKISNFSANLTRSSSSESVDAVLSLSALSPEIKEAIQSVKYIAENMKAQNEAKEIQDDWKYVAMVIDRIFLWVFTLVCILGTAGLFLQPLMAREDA
T2 sequence (Q15825 whole entry): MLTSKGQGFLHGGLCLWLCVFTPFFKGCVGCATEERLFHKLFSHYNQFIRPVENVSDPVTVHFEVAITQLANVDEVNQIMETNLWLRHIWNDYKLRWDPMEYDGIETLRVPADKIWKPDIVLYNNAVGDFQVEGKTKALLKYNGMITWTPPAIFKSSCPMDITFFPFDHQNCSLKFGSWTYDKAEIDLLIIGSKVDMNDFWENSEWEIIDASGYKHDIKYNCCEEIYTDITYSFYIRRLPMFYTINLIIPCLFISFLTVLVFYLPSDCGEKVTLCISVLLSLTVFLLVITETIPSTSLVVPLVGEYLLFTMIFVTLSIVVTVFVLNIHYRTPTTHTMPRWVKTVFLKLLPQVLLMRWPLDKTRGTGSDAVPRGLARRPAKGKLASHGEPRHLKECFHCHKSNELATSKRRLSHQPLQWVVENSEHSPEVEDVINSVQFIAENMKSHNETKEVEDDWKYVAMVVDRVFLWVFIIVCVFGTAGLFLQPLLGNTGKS
T2 sequence (Q05901 whole entry): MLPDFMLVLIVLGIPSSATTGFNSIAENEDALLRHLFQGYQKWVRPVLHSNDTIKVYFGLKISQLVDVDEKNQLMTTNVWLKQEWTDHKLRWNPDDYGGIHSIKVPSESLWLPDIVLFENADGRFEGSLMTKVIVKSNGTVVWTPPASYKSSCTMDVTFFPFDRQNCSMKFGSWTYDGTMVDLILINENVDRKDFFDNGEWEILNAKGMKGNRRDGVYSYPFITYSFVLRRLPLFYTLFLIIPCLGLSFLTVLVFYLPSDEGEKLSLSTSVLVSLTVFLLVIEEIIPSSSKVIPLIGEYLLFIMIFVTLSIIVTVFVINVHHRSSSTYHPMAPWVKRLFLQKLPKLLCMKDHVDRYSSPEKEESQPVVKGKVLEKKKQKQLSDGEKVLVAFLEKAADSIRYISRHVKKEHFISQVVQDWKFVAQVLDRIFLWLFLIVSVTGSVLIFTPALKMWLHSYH
T1 sequence (P17787 whole entry): as the sequence (P17787 whole entry) above
T1 sequence (P43681 whole entry): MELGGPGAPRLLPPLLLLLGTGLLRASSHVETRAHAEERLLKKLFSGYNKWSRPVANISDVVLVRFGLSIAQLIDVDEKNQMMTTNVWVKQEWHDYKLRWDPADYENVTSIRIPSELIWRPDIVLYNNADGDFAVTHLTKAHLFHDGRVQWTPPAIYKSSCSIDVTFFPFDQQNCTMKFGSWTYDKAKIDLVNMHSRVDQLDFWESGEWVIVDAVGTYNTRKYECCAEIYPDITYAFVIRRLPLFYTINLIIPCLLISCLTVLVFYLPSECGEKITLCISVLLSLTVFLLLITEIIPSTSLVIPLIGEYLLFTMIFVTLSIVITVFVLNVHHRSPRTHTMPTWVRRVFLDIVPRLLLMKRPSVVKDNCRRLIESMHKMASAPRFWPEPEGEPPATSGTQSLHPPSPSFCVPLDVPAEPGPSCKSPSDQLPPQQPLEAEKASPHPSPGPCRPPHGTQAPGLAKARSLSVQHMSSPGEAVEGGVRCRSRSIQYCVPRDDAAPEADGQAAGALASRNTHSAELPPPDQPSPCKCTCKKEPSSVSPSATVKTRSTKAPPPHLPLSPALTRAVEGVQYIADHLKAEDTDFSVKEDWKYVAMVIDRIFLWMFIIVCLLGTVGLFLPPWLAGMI

SMILES	Ki [1] [nM]	Ki [2] [nM]	EC50 [3] [nM]	EC50 [4] [µM]	Emax [5] [%]	Emax [6] [%]	EC50 [7] [nM]	Emax [8] [%]	also measured
O=C(C1CC1(F)F)N1CC2CC(C1)N2 (configuration not stated)	5.9	75	1000	2.3	94	100	100	110	
O=C(C1CCC1)N1CC2CC(C1)N2	16	240	2900	11	100	99	370	80	
O=C([C@H]1C[C@H]1F)N1CC2CC(C1)N2		27	210	1.5	110	110	62	130	
C[C@@H]1C[C@H]1C(=O)N1CC2CC(C1)N2		14	190	2.9	110	110	51	110	
C[C@H]1C[C@@H]1C(=O)N1CC2CC(C1)N2	17	310	9100	14	67	85	3800	64	
O=C([C@@H]1C[C@H]1F)N1CC2CC(C1)N2		43	120	0.87	110	110	53	130	
C[C@@H]1C[C@@H]1C(=O)N1CC2CC(C1)N2		92	2100	3.8	88	97	920	87	
O=C(C1CC1)N1CC2CCC(C1)N2	320	7200							
CC(C)C(=O)N1CC2CC(C1)N2	130	580	19000	20	86	71	16000	45	
O=C(C1CC1)N1CC2CC1CN2 (configuration not stated)	2800	10000							
CC(=O)N1CC2CC(C1)N2	150	610	5100	9.7	94	95	750	100	
C[C@H]1C[C@H]1C(=O)N1CC2CC(C1)N2	7	170	2200	5.8	87	93	2000	60	
O=C(C1CC1)N1CC2CC(C1)N2		21	140	0.85	110	110	80	100	Cmax [9]: 200 ng/mL; Tmax [10]: 1 h; bioavailability [11]: 82.6%; half-life [12]: 94.8 min; concentration at 0.5 h [13]: 123 ng/mL; concentration at 0.5 h [14]: 39.5 ng/g; Kp at 0.5 h [15]: 0.22; concentration at 1 h [16]: 174 ng/mL; concentration at 1 h [17]: 53.7 ng/g; Kp at 1 h [18]: 0.31; concentration at 4 h [19]: 62.2 ng/mL; concentration at 4 h [20]: 20.2 ng/g; Kp at 4 h [21]: 0.32; inhibition (INH) (Rattus norvegicus): 24%
O=C([C@@H]1C[C@@H]1F)N1CC2CC(C1)N2	1.7	55	120	0.37	120	110	88	120	
O=C(C1CC1)N1CCNCC1	6000	26000							
CC1(C)CC1C(=O)N1CC2CC(C1)N2 (configuration not stated)	3.9	250	2200	5.7	96	92	540	73	
O=C(CC1C=CCC1)N1CC2CC(C1)N2 (configuration not stated)	53	2500	14000	37	89	94	21000	47	
CCCC(=O)N1CC2CC(C1)N2	14	350	580	0.85	120	110	300	92	
CCC(=O)N1CC2CC(C1)N2	6	190	490	5.9	98	110	180	120	
O=C(C1CCCC1)N1CC2CC(C1)N2	160	2900	11000	29	48	68	1600	62	
O=C(C1CC=CC1)N1CC2CC(C1)N2	51	1100	6600	17	93	95	1900	99	
O=C([C@H]1C[C@@H]1F)N1CC2CC(C1)N2	5.4	490	850	2.8	100	100	620	85	
